Results taken from US8574563B2 (Bristol-Myers Squibb Company, priority 2006, dated 2013).
Like-named read-outs stand apart in the source and are kept apart here.

Tested on: HCV 1b-377-neo replicon cells
Assay: HCV replicon assay, HCV 1b-377-neo replicon cells (1b FRET)
Format: cell-based, Hepatitis C virus genotype 1b
Conditions: HCV 1b-377-neo replicon cells, HCV 1b genotype, read-out: EC50 range against HCV 1b (Table 2, Range)
How it was run: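 Compounds tested in HCV genotype 1b-377-neo replicon cells with a FRET read-out. Cells resistant to a reference NS5A inhibitor through a Y2065H NS5A mutation were run alongside wild-type cells.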

Compound | EC50 (Hepatitis C virus) [nM] | EC50 [nM]
C[C@H](NC(=O)[C@@H](c1ccccc1)N(C)C)c1ncc(-c2ccc(-c3ccc(-c4cnc([C@@H]5CCCN5C(=O)[C@@H](c5ccccc5)N(C)C)[nH]4)nn3)cc2)[nH]1 [Example 152j-13, (2R)-2-(dimethylamino)-N-((1S)-1-(5-(4-(6-(2-((2S)-1-((2R)-2-(dimethylamino)-2-phenylacetyl)-2-pyrrolidinyl)-1H-imidazol-5-yl)-3-pyridazinyl)phenyl)-1H-imidazol-2-yl)ethyl)-2-phenylacetamide] | 1 to 99 | –
COC(=O)N[C@@H](C(=O)N1CCC[C@H]1c1ncc(-c2ccc(-c3ccc(-c4cnc([C@@H]5CCCN5C(=O)Cc5cccc(Cl)c5)[nH]4)cc3)cc2)[nH]1)c1ccccc1 [Example 84-67, methyl ((1R)-2-((2S)-2-(5-(4′-(2-((2S)-1-((3-chlorophenyl)acetyl)-2-pyrrolidinyl)-1H-imidazol-5-yl)-4-biphenylyl)-1H-imidazol-2-yl)-1-pyrrolidinyl)-2-oxo-1-phenylethyl)carbamate] | 0.001 to 0.999 | –
CCN(CC)[C@@H](C(=O)N1C[C@H](F)C[C@H]1c1ncc(-c2ccc(-c3ccc(-c4cnc([C@@H]5C[C@@H](F)CN5C(=O)[C@@H](c5ccccc5)N(CC)CC)[nH]4)cc3)cc2)[nH]1)c1ccccc1 [JG-17, (1R,1′R)-2,2′-(4,4′-biphenyldiylbis(1H-imidazole-5,2-diyl((2S,4R)-4-fluoro-2,1-pyrrolidinediyl)))bis(N,N-diethyl-2-oxo-1-phenylethanamine)] | 0.001 to 0.999 | –
O=C(c1ccc(N2CCOCC2)cc1)N1CCC[C@H]1c1ncc(-c2ccc(-c3ccc(-c4cnc([C@@H]5CCCN5C(=O)[C@@H](c5ccccc5)N5CCCCC5)[nH]4)cc3)cc2)[nH]1 [Example 107-10, 4-(4-(((2S)-2-(5-(4′-(2-((2S)-1-((2R)-2-phenyl-2-(1-piperidinyl)acetyl)-2-pyrrolidinyl)-1H-imidazol-5-yl)-4-biphenylyl)-1H-imidazol-2-yl)-1-pyrrolidinyl)carbonyl)phenyl) morpholine] | 0.001 to 0.999 | –
COC(=O)N[C@@H](Cc1cncn1C)C(=O)N1CCC[C@H]1c1ncc(-c2ccc(-c3ccc(-c4cnc([C@@H]5CCCN5C(=O)[C@@H](NC(=O)OC)[C@@H](C)OC)[nH]4)cc3)cc2)[nH]1 [cj-47, methyl ((1S)-2-((2S)-2-(5-(4′-(2-((2S)-1-((2S,3R)-3-methoxy-2-((methoxycarbonyl)amino)butanoyl)-2-pyrrolidinyl)-1H-imidazol-5-yl)-4-biphenylyl)-1H-imidazol-2-yl)-1-pyrrolidinyl)-1-((1-methyl-1H-imidazol-5-yl)methyl)-2-oxoethyl)carbamate] | 1 to 99 | –
CN(C)[C@@H](C(=O)N1CCC[C@H]1c1ncc(-c2ccc(-c3ccc(-c4cnc([C@@H]5CCCN5C(=O)c5cccc(C(=O)c6ccccc6)c5)[nH]4)cc3)cc2)[nH]1)c1ccccc1 [Example 94-32, (3-(((2S)-2-(5-(4′-(2-((2S)-1-((2R)-2-(dimethylamino)-2-phenylacetyl)-2-pyrrolidinyl)-1H-imidazol-5-yl)-4-biphenylyl)-1H-imidazol-2-yl)-1-pyrrolidinyl)carbonyl)phenyl)(phenyl)methanone] | 1 to 99 | –
CCN(CC)[C@@H](C(=O)N1CCC[C@H]1c1ncc(-c2ccc(-c3ncc(-c4c[nH]c([C@@H]5CCCN5C(=O)[C@@H](NC(=O)OC)C(C)C)n4)cn3)cc2)[nH]1)c1ccccc1 [Example D76] | 0.001 to 0.999 | –
COC(=O)N[C@@H](C(=O)N1CCC[C@H]1c1ncc(-c2ccc(-c3ccc(-c4cnc([C@@H]5CCCN5C(=O)c5cnco5)[nH]4)cc3)cc2)[nH]1)c1ccccc1 [Example 72, methyl ((1R)-2-((2S)-2-(5-(4′-(2-((2S)-1-(1,3-oxazol-5-ylcarbonyl)-2-pyrrolidinyl)-1H-imidazol-5-yl)-4-biphenylyl)-1H-imidazol-2-yl)-1-pyrrolidinyl)-2-oxo-1-phenylethy)carbamate] | – | 1 to 99
COC(=O)N[C@H](C(=O)N1CC[C@H](O)[C@H]1c1nc(-c2ccc(-c3ccc(-c4c[nH]c([C@@H]5CCCN5C(=O)[C@@H](NC(=O)OC)C(C)C)n4)cc3)cc2)c[nH]1)C(C)C [OL-19, methyl ((1S)-1-(((2R,3S)-3-hydroxy-2-(4-(4′-(2-((2S)-1-((2S)-2-((methoxycarbonyl)amino)-3-methylbutanoyl)-2-pyrrolidinyl)-1H-imidazol-4-yl)-4-biphenylyl)-1H-imidazol-2-yl)-1-pyrrolidinyl)carbonyl)-2-methylpropyl)carbamate] | 0.001 to 0.999 | –
CN(C)[C@@H](C(=O)N1CCC[C@H]1c1ncc(-c2ccc(-c3ccc(-c4cnc([C@@H]5CCCN5C(=O)[C@@H](c5ccccc5F)N(C)C)[nH]4)cc3)cc2)[nH]1)c1ccccc1 [Example 107-31, (1R)-2-((2S)-2-(5-(4′-(2-((2S)-1-((2R)-2-(dimethylamino)-2-(2-fluorophenyl)acetyl)-2-pyrrolidinyl)-1H-imidazol-5-yl)-4-biphenylyl)-1H-imidazol-2-yl)-1-pyrrolidinyl)-N,N-dimethyl-2-oxo-1-phenylethanamine] | 0.001 to 0.999 | –
CN(C)[C@@H](C(=O)N1CCC[C@H]1c1ncc(-c2ccc(-c3ccc(-c4cnc([C@@H]5CCCN5C(=O)C(c5ccccc5)c5ccccc5)[nH]4)cc3)cc2)[nH]1)c1ccccc1 [Example 94-36, (1R)-2-((2S)-2-(5-(4′-(2-((2S)-1-(diphenylacetyl)-2-pyrrolidinyl)-1H-imidazol-5-yl)-4-biphenylyl)-1H-imidazol-2-yl)-1-pyrrolidinyl)-N,N-dimethyl-2-oxo-1-phenylethanamine] | 0.001 to 0.999 | –
CC[C@H](NC(=O)OC)C(=O)N1CCC[C@H]1c1ncc(-c2ccc(-c3ccc(-c4cnc([C@@H]5CCCN5C(=O)[C@H](CC)NC(=O)OC)[nH]4)cc3)cc2)[nH]1 [Example M21, dimethyl (4,4′-biphenyldiylbis(1H-imidazole-5,2-diyl(2S)-2,1-pyrroldinediyl((2S)-1-oxo-1,2-butanediyl)))biscarbamate] | – | 1 to 99
CN(C)[C@@H](C(=O)N1CCC[C@H]1c1ncc(-c2ccc(-c3ccc(-c4cnc([C@@H]5CCCN5C(=O)Cc5ccc(F)cc5)[nH]4)cc3)cc2)[nH]1)c1ccccc1 [Example 94-53, (1R)-2-((2S)-2-(5-(4′-(2-((2S)-1-((4-fluorophenyl)acetyl)-2-pyrrolidinyl)-1H-imidazol-5-yl)-4-biphenylyl)-1H-imidazol-2-yl)-1-pyrrolidinyl)-N,N-dimethyl-2-oxo-1-phenylethanamine] | 0.001 to 0.999 | –
methyl ((1R)-2-((2S)-2-(5-(4′-(2-((2S)-1-(3- benzoylbenzyl)-2-pyrrolidinyl)-1H- imidazol-5-yl)-4-biphenylyl)-1H-imidazol-2- yl)-1-pyrrolidinyl)-2-oxo-1- phenylethyl)carbamate [Example 84-34] | – | 1 to 99
COC(=O)N[C@@H](C(=O)N1CCC[C@H]1c1ncc(-c2ccc(-c3ccc(-c4cnc([C@@H]5CCCN5C(=O)[C@@H]5CCCN5)[nH]4)cc3)cc2)[nH]1)c1ccccc1 [Example 80, methyl ((1R)-2-oxo-1-phenyl-2-((2S)-2-(5-(4′-(2-((2S)-1-L-prolyl-2-pyrrolidinyl)-1H-imidazol-5-yl)-4-biphenylyl)-1H-imidazol-2-yl)-1-pyrrolidinyl)ethyl)carbamate] | 0.001 to 0.999 | –
COC(=O)N[C@@H](C)C(=O)N1CCC[C@H]1c1ncc(-c2ccc(-c3ccc(-c4cnc([C@@H]5CCCN5C(=O)[C@H](NC(=O)OC)c5ccccc5)[nH]4)cc3)cc2)[nH]1 [Example 75, methyl ((1R)-2-((2S)-2-(5-(4′-(2-((2S)-1-(N-(methoxycarbonyl)-L-alanyl)-2-pyrrolidinyl)-1H-imidazol-5-yl)-4-biphenylyl)-1H-imidazol-2-yl)-1-pyrrolidinyl)-2-oxo-1-phenylethyl)carbamate] | 0.001 to 0.999 | –
CN(C)[C@@H](C(=O)N1CCC[C@H]1c1ncc(-c2ccc(-c3ccc(-c4cnc([C@@H]5CCCN5C(=O)[C@H]5CCC(=O)N5)[nH]4)cc3)cc2)[nH]1)c1ccccc1 [Example 94-2, (5R)-5-(((2S)-2-(5-(4′-(2-((2S)-1-((2R)-2-(dimethylamino)-2-phenylacetyl)-2-pyrrolidinyl)-1H-imidazol-5-yl)-4-biphenylyl)-1H-imidazol-2-yl)-1-pyrrolidinyl)carbonyl)-2-pyrrolidinone] | 1 to 99 | –
COC(=O)N[C@@H](C(=O)N1CCC[C@H]1c1ncc(-c2ccc(-c3ccc(-c4cnc([C@@H]5CCCN5C(=O)C(c5ccc(Cl)cc5)N(C)C)[nH]4)cc3)cc2)[nH]1)c1ccccc1 (stereo partly drawn) [Example 84-58, methyl ((1R)-2-((2S)-2-(5-(4′-(2-((2S)-1-((4-chlorophenyl)(dimethylamino)acetyl)-2-pyrrolidinyl)-1H-imdiazol-5-yl)-4-biphenylyl)-1H-imidazol-2-yl)-1-pyrrolidinyl)-2-oxo-1-phenylethyl)carbamate] | – | 0.001 to 0.999
COC(=O)N[C@@H](Cc1c[nH]c2ccccc12)C(=O)N1CCC[C@H]1c1ncc(-c2ccc(-c3ccc(-c4cnc([C@@H]5CCCN5C(=O)[C@@H](NC(=O)OC)[C@@H](C)OC)[nH]4)cc3)cc2)[nH]1 [cj-100, methyl ((1S)-1-(1H-indol-3-ylmethyl)-2-((2S)-2-(5-(4′-(2-((2S)-1-((2S,3R)-3-methoxy-2-((methoxycarbonyl)amino)butanoyl)-2-pyrrolidinyl)-1H-imidazol-5-yl)-4-biphenylyl)-1H-imidazol-2-yl)-1-pyrrolidinyl)-2-oxoethyl)carbamate] | 0.001 to 0.999 | –
CCN(CC)[C@H]1CC[C@@H](C(=O)N2CCC[C@H]2c2ncc(-c3ccc(-c4ccc(-c5cnc([C@@H]6CCCN6C(=O)[C@@H](NC(=O)OC)[C@@H](C)OC)[nH]5)cc4)cc3)[nH]2)CC1 [cj-72, methyl ((1S,2R)-1-(((2S)-2-(5-(4′-(2-((2S)-1-((cis-4-(diethylamino)cyclohexyl)carbonyl)-2-pyrrolidinyl)-1H-imidazol-5-yl)-4-biphenylyl)-1H-imidazol-2-yl)-1-pyrrolidinyl)carbonyl)-2-methoxypropyl)carbamate] | 0.001 to 0.999 | –
